Laboratory results published in patent US20140298493A1, “PIK3CA H1047R Knock-In Non-Human Animal Breast Cancer Model” (priority 2011, published 2014).
“Also recorded” adds a separate entry of the source.

Experiments:
[1] = tested on: PIK3CA^e20H1047R mammary tumor explants (spindle cell tumor with TP53 mutations) grown as xenografts; experiment: Drug efficacy study: mammary tumor explants implanted subcutaneously near mammary fat pad, tumor growth inhibition and time to progression; assay type: in vivo, C.B-17 SCID beige mice
Procedure: Tumor sizes and mouse body weights were recorded twice weekly over the course of the study. […] The 2.5 and 97.5 percentiles of the simulated distribution were used as the […] UIs.

[2] = tested on: pAKT and pS6 (PI3K pathway) in PIK3CA^e20H1047R mammary tumor explants; experiment: Western blot of tumors from GDC-0941 treated mice (PI3K pathway inhibition); assay type: in vivo, C.B-17 SCID beige mice; conditions: at least up to 10 hours following treatment
Procedure: Frozen tumors were weighed and lysed with a pestle PP (Scienceware, NJ) in cell extract buffer (Invitrogen, CA) supplemented with protease inhibitors (F. Hoffman-La Roche, Ltd., Germany), 1 mM phenylmethysulfonyl fluoride, and phosphatase inhibitor cocktails 1 and 2 (Sigma, Mo.). Protein concentrations were determined using the Pierce BCA Protein Assay Kit (Rockford, Ill.). For Western blots equal amounts of protein were separated by electrophoresis through NuPage Bis-Tris 4-12% gradient gels (Invitrogen, CA), proteins were transferred onto nitrocellulose pore membranes using the iBlot system (Invitrogen, CA). Primary antibodies used for blotting include pAkt (Ser473), pAkt (Thr308), total Akt, pS6 (Ser235/236), pS6 (Ser240/242) and total S6 antibodies were obtained from Cell Signaling Technology (Danvers, Mass.), and anti-actin antibody was purchased from Sigma-Aldrich (St. Louis, Mo.). Chemiluminescence western blotting detection (Amersham Biosciences, PA) coupled with appropriate secondary horseradish peroxidase-conjugated secondary IgG antibodies was employed, to detect the primary antibody bound proteins.

CS(=O)(=O)N1CCN(Cc2cc3nc(-c4cccc5[nH]ncc45)nc(N4CCOCC4)c3s2)CC1 [GDC-0941]
tumor growth inhibition (TGI) ([1]; 150 mg/kg, daily oral gavage for 13 days, % TGI relative to vehicle (AUC based), highest TGI): 85%
response of tumor explants grown as xenografts to treatment ([1]; FIG. 5a legend): respond to treatment
time to progression, log-rank test versus vehicle control ([1]; all doses tested (50, 100, 150 mg/kg), p<0.0001 at 150 mg/kg): statistically significant difference
tumor growth inhibition compared to vehicle treatment ([1]; other doses tested (50 and 100 mg/kg), daily oral gavage for 13 days): tumor growth inhibition was also observed
pAKT and pS6 in tumor from treated mice [2]: significant decrease in pAKT and pS6; also recorded: evidence of PI3K pathway inhibition
